Data from paper PMC7439263 (ACS Omega, 2020).
One block for each compound: values may come before it.

Columns and labels:
α-glucosidase = settings: cited from earlier work
[1] = in vivo ref 49; cited from earlier work
α-amylase = settings: cited from earlier work
[2] = target: T1, α-amylase (from the porcine pancreas) (Sus scrofa, UniProt P00690); experiment: biochemical; type: biochemical; settings: for IC50: IC50 α-amylase, mean ± SD (n = 3)
T1 sequence (P00690 16-511): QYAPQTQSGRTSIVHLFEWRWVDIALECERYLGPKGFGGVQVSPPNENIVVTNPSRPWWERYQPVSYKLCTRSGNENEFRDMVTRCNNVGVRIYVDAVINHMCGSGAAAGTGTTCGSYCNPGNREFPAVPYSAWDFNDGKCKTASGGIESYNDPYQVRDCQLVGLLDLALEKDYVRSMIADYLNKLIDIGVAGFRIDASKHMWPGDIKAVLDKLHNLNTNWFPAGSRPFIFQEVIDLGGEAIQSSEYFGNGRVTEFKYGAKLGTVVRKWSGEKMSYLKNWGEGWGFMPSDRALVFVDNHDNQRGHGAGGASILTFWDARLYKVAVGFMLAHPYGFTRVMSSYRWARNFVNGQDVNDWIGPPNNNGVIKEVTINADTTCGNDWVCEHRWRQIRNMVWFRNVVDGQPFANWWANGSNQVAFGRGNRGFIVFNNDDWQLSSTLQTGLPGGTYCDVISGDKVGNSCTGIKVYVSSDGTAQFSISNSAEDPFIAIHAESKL

[3] = system: α-Glucosidase (from Saccharomyces cerevisiae); experiment: Assay for α-glucosidase inhibitory activity; type: biochemical; settings: for IC50: read-out: IC50 α-glucosidase, mean ± SD (n = 3); for α-glucosidase inhibitory activity compared to acarbose (in words): Figure 3, 150 μM, p < 0.05; for total activity α-glucosidase: total activity = amount (mg/kg)/IC50 (mg/mL)
glycogen phosphorylase = settings: cited from earlier work
[4] = system: α-Glucosidase (from Saccharomyces cerevisiae); experiment: Inhibitory kinetics analysis against the α-glucosidase enzyme; type: biochemical; settings: Lineweaver–Burk plot analysis, sucrose substrate
glycogenic enzymes = settings: rats ref 47; cited from earlier work
[5] = STZ-induced diabetic rats ref 46; cited from earlier work

Compound: C[C@H]1[C@H](C)CC[C@]2(C(=O)O)CC[C@]3(C)C(=CC[C@@H]4[C@@]5(C)C[C@@H](O)[C@H](O)C(C)(C)[C@@H]5CC[C@]43C)[C@H]12 [corosoric acid]
α-glucosidase inhibitory activity in vitro (in words) (α-glucosidase): strong inhibitory activity | post-challenge plasma glucose levels [1]: significant effect on lowering post-challenge plasma glucose levels | α-amylase inhibitory activity in vitro (in words) (α-amylase): strong inhibitory activity

IC50 [2]: > 500 µM | inhibition at 500 µM ([2]; read-out: α-amylase inhibitory activity at highest tested concentration): < 10% | α-glucosidase inhibitory activity at highest tested concentration ([3]; 1000 μM): less than 10% | IC50 [3]: > 1000 µM
Compound: OCCc1ccc(O)c(O)c1 [hydroxytyrosol 7, hydroxytyrosol]

α-amylase inhibitory activity compared to acarbose (in words) [2]: acarbose had higher activity than them | IC50 [2]: 67 ± 5.4 µM | total activity α-amylase ([2]; total activity = amount (mg/kg)/IC50 (mg/mL)): 5678.2 | α-glucosidase inhibitory activity compared to acarbose (in words) [3]: higher than that of acarbose | IC50 [3]: 34.5 ± 1.4 µM | total activity α-glucosidase [3]: 11042.9
Compound: CC1(C)CC[C@]2(C(=O)O)CC[C@]3(C)C(=CC[C@@H]4[C@@]5(C)C[C@@H](O)[C@H](O)C(C)(C)[C@@H]5CC[C@]43C)[C@@H]2C1 [maslinic acid 2, maslinic acid]
blood glucose levels / glycogen phosphorylase inhibition (glycogen phosphorylase): reduce blood glucose levels by inhibiting glycogen phosphorylase

inhibition type against α-glucosidase [4]: partial mixed inhibitor | inhibition type against α-glucosidase ([4]; listed as 1): mixed-type | α-glucosidase inhibitory activity compared to acarbose (in words) [3]: higher than that of acarbose | total activity α-glucosidase [3]: 5359.5
Compound: CC1(C)CC[C@]2(C(=O)O)CC[C@]3(C)C(=CC[C@@H]4[C@@]5(C)CC[C@H](O)C(C)(C)[C@@H]5CC[C@]43C)[C@@H]2C1 [oleanolic acid 1, oleanolic acid]
glycogen levels and glycogenic enzymes (glycogenic enzymes): reduced glycogen levels and glycogenic enzymes | blood glucose levels [5]: lower blood glucose levels
